Measured values published in patent publication US8618098B2, “Inhibitors of bruton's tyrosine kinase” (Roche Palo Alto LLC, priority 2008, dated 2013).
pIC50: −log10 of the molar value.

Legend:
[1] = biological target: Btk enzyme (His-tagged, full-length) (Homo sapiens (Human), UniProt Q06187); assay: Bruton's Tyrosine Kinase (Btk) Inhibition Assay; type: biochemical; conditions: 33P filtration capture assay, 100 μM ATP, 30 μM biotinylated peptide substrate
Excerpt: The assay is a capture of radioactive ^33P phosphorylated product through filtration. The interactions of Btk, biotinylated SH2 peptide substrate (Src homology), and ATP lead to phosphorylation of the peptide substrate. Biotinylated product is bound streptavidin sepharose beads. All bound, radiolabeled products are detected by scintillation counter.
Plates assayed are 96-well polypropylene (Greiner) and 96-well 1.2 μm hydrophilic PVDF filter plates (Millipore). Concentrations reported here are final assay concentrations: 10-100 μM compounds in DMSO (Burdick and Jackson), 5-10 nM Btk enzyme (His-tagged, full-length), 30 μM peptide substrate (Biotin-Aca-[…]-NH2), 100 μM ATP (Sigma), 8 mM imidazole (Sigma, pH 7.2), 8 mM glycerol-2-phosphate (Sigma), 200 μM EGTA (Roche Diagnostics), 1 mM MnCl2 (Sigma), 20 mM MgCl2 (Sigma), 0.1 mg/ml BSA (Sigma), 2 mM DTT (Sigma), 1 μCi ^33P ATP (Amersham), 20% streptavidin sepharose beads (Amersham), 50 mM EDTA (Gibco), 2 M NaCl (Gibco), 2 M NaCl w/1% phosphoric acid (Gibco), microscint-20 (Perkin Elmer).
IC50 determinations are calculated from 10 data points per compound utilizing data produced from a standard 96-well plate assay template. One control compound and seven unknown inhibitors were tested on each plate and each plate was run twice. Typically, compounds were diluted in half-log starting at 100 μM and ending at 3 nM. The control compound was staurosporine. Background was counted in the absence of peptide substrate. Total activity was determined in the presence of peptide substrate. The following protocol was used to determine Btk inhibition.
1) Sample preparation: The test compounds were diluted at half-log increments in assay buffer (imidazole, glycerol-2-phosphate, EGTA, MnCl2, MgCl2, BSA).
a.) rinse beads by centrifuging at 500 g
b.) reconstitute the beads with PBS and EDTA to produce a 20% bead slurry
3) Pre-incubate reaction mix without substrate (assay buffer, DTT, ATP, ^33P ATP) and mix with substrate (assay buffer, DTT, ATP, ^33P ATP, peptide substrate) 30° C. for 15 min.
4) To start assay, pre-incubate 10 μL Btk in enzyme buffer (imidazole, glycerol-2-phosphate, BSA) and 10 μL of test compounds for 10 min at RT.
5) Add 30 μL reaction mixture without or with substrate to Btk and compounds.
6) Incubate 50 μL total assay mix for 30 min at 30° C.
7) Transfer 40 μL of assay to 150 μL bead slurry in filter plate to stop reaction.
8) Wash filter plate after 30 min, with following steps
b. 3×250 μL NaCl containing 1% phosphoric acid
9) Dry plate for 1 h at 65° C. or overnight at RT
10) Add 50 μL microscint-20 and count ^33P cpm on scintillation counter. […]

Sequence of Btk enzyme (His-tagged, full-length) (Q06187 whole entry): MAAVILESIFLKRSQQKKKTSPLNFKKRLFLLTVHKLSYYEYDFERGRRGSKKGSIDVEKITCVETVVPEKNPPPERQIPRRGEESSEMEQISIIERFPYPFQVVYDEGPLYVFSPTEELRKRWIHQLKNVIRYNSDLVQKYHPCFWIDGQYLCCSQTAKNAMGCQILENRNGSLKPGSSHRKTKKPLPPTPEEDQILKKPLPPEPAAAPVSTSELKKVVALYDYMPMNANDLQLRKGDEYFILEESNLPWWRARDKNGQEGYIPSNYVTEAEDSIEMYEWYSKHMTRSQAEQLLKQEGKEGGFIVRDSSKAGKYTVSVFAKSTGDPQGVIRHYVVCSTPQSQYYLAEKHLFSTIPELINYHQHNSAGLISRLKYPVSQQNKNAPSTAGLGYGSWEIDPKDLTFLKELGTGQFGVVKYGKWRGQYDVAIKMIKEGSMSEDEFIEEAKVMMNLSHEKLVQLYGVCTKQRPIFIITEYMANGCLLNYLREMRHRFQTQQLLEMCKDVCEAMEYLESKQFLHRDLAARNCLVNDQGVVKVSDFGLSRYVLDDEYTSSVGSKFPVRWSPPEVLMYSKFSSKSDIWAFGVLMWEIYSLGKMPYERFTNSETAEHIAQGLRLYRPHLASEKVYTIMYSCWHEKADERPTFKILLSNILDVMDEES

Structure (SMILES) | pIC50 [1] | melting point
CNC(=O)Nc1cc(-c2cccc(-n3cnc4cc(C(C)(C)C)ccc4c3=O)c2C)cn(C)c1=O [Compound I-1, 1-{5-[3-(7-tert-Butyl-4-oxo-4H-quinazolin-3-yl)-2-methyl-phenyl]-1-methyl-2-oxo-1,2-dihydro-pyridin-3-yl}-3-methyl urea] | 6.95 | –
Cc1c(-c2cc(Nc3ccc(C(=O)N4CCOCC4)cn3)c(=O)n(C)c2)cccc1N1CNc2cc(N(C)C)ccc2C1=O [II-1, 7-Dimethylamino-3-(2-methyl-3-{1-methyl-5-[5-(morpholin-4-carbonyl)-pyridin-2-ylamino]-6-oxo-1,6-dihydro-pyridin-3-yl}-phenyl)-2,3-dihydro-1H-quinazolin-4-one] | 7.66 | 247.1 to 250.9 °C

The remaining lines, values ahead:

pIC50 [1] | melting point | Structure (SMILES)
– | 218.5 to 223.8 °C | CNC(=O)Nc1cc(-c2cccc(N3CNc4cc(N(C)C)ccc4C3=O)c2C)cn(C)c1=O [II-2, 1-{5-[3-(7-Dimethylamino-4-oxo-1,4-dihydro-2H-quinazolin-3-yl)-2-methyl-phenyl]-1-methyl-2-oxo-1,2-dihydro-pyridin-3-yl}-3-methyl-urea]
7.74 | 196 to 197 °C | Cc1c(-c2cc(Nc3ccc(C(=O)N4CCOCC4)cn3)c(=O)n(C)c2)cccc1N1CNc2cc(C(C)(C)O)ccc2C1=O [II-3, 7-(1-Hydroxy-1-methyl-ethyl)-3-(2-methyl-3-{1-methyl-5-[5-(morpholine-4-carbonyl)-pyridin-2-ylamino]-6-oxo-1,6-dihydro-pyridin-3-yl}-phenyl)-2,3-dihydro-1H-quinazolin-4-one]
6.91 | – | Cc1c(-c2cc(Nc3ccc(C(=O)N4CCOCC4)cn3)c(=O)n(C)c2)cccc1-n1ncc2cc(N(C)C)ccc2c1=O [III-1, 6-Dimethylamino-2-(2-methyl-3-{1-methyl-5-[5-(morpholine-4-carbonyl)-pyridin-2-ylamino]-6-oxo-1,6-dihydro-pyridin-3-yl}-phenyl)-2H-phthalazin-1-one]
